# Source: patent publication US9670487B2, “Cationic lipids for oligonucleotide delivery” (SIRNA THERAPEUTICS, INC., priority 2010, dated 2017)
# How the values were obtained:
# [1] = tested on: mRNA transcript for the firefly (Photinus pyralis) luciferase gene; assay: In vivo efficacy in luciferase mouse model (LNP/RDV with Luc siRNA); conditions: for inhibition at 0.3 mg/kg: Mus musculus, LNPs prepared from the compound with Luc siRNA, 0.3 mg Kg^-1, tail vein, imaged 48 hours post dose, relative to pre-dose luminescence, read-out: Average % Inhibition of Bioluminescence
# Description: LNPs utilizing the compounds of the instant invention, in the nominal compositions described immediately above, were evaluated for in vivo efficacy and induction of inflammatory cytokines in a luciferase mouse model. The siRNA targets the mRNA transcript for the firefly (Photinus pyralis) luciferase gene (Accession # M15077). […] The in vivo luciferase model employs a transgenic mouse in which the firefly luciferase coding sequence is present in all cells. ROSA26-LoxP-Stop-LoxP-Luc (LSL-Luc) transgenic mice licensed from the Dana Farber Cancer Institute are induced to express the Luciferase gene by first removing the LSL sequence with a recombinant Ad-Cre virus (Vector Biolabs). Due to the organo-tropic nature of the virus, expression is limited to the liver when delivered via tail vein injection. Luciferase expression levels in liver are quantitated by measuring light output, using an IVIS imager (Xenogen) following administration of the luciferin substrate (Caliper Life Sciences). Pre-dose luminescence levels are measured prior to administration of the RDVs. Luciferin in PBS (15 mg/mL) is intraperitoneally (IP) injected in a volume of 150 uL. After a four minute incubation period mice are anesthetized with isoflurane and placed in the IVIS imager. The RDVs (containing siRNA) in PBS vehicle were tail vein injected n a volume of 0.2 mL. Final dose levels ranged from 0.3 to 3 mg/kg siRNA. PBS vehicle alone was dosed as a control. Three hours post dose, mice were bled retro-orbitally to obtain plasma for cytokine analysis. Mice were imaged 48 hours post dose using the method described above. Changes in luciferin light output directly correlate with luciferase mRNA levels and represent an indirect measure of luciferase siRNA activity. In vivo efficacy results are expressed as % inhibition of luminescence relative to pre-dose luminescence levels. Plasma cytokine levels were determined using the SearchLight multiplexed cytokine chemiluminescent array (Pierce/Thermo). Systemic administration of the luciferase siRNA RDVs decreased luciferase expression in a dose dependant manner. […]
# [2] = Rat in vivo tolerability: serum ALT and AST after LNP dosing; conditions: Sprague-Dawley female rats; RDV with ApoB siRNA; tail vein; 24 hours after dosing; FIG. 4
# Description: Six hours post dose, food is removed from the cages. Animal necropsy is performed 24 hours after LNP dosing. Rats are anesthetized under isoflurane for 5 minutes, then maintained under anesthesia by placing them in nose cones continuing the delivery of isoflurane until ex-sanguination is completed. Blood is collected from the vena cava using a 23 gauge butterfly venipuncture set and aliquoted to serum separator vacutainers for serum chemistry analysis. Punches of the excised caudate liver lobe are taken and placed in RNALater (Ambion) for mRNA analysis. Preserved liver tissue was homogenized and total RNA isolated using a Qiagen bead mill and the Qiagen miRNA-Easy RNA isolation kit following the manufacturer's instructions. Liver ApoB mRNA levels were determined by quantitative RT-PCR. Message was amplified from purified RNA utilizing a rat ApoB commercial probe set (Applied Biosystems Cat # RN01499054_ml). The PCR reaction was performed on an ABI 7500 instrument with a 96-well Fast Block. The ApoB mRNA level is normalized to the housekeeping PPIB (NM 011149) mRNA. PPIB mRNA levels were determined by RT-PCR using a commercial probe set (Applied Biosystems Cat. No. Mm00478295_ml). Results are expressed as a ratio of ApoB mRNA/PPIB mRNA. All mRNA data is expressed relative to the PBS control dose. […]
# [3] = tested on: mRNA transcript for the ApoB gene; assay: Rhesus monkey in vivo efficacy: serum LDL-C as surrogate marker of ApoB mRNA reduction; design: species or system Macaca mulatta (rhesus) monkeys; conditions: RDVs containing the compound and ApoB siRNA; 1 mg/kilogram siRNA intravenous; 2-12 days post administration; FIG. 6
# Description: LNPs utilizing compound 34 in the nominal compositions described above, were evaluated for in vivo efficacy in male or female Macaca mulatta (rhesus) monkeys. The siRNA targets the mRNA transcript for the ApoB gene (Accession # XM 001097404). […] The RDVs (containing siRNA) in PBS vehicle were administered by intravenous injection in the saphenous vein at an injection rate of 20 mL/minute to a dose level of 1 mg/kilogram siRNA. The injection volumes were from 1.9 to 2.1 mL/kilogram and monkeys ranged in weight from 2.5 to 4.5 kilograms. The RDV or PBS control were administered to three monkeys. At multiple days post dose, 1 mL blood samples were drawn from the femoral artery for serum chemistry analysis. Monkeys were fasted overnight prior to blood draws. As a measure of efficacy, LDL-C was monitored as a downstream surrogate marker of ApoB mRNA reduction. At 2-12 days post systemic administration of RDVs containing compound 34, serum levels of LDL-C were reduced to less than 30% of pre-dose levels (FIG. 6).
smiles,measurement,setting,value
"CCCCC/C=C\C/C=C\CCCCCCCCOC(CN(C)C)OCCCCCCCC/C=C\C/C=C\CCCCC [Compound 2, N,N-dimethyl-2,2-bis[(9Z,12Z)-octadeca-9,12-dien-1-yloxy]ethanamine]",inhibition at 0.3 mg/kg,[1],64%
same,"Efficacy compared with RDV containing octyl-CLinDMA cationic lipid, Compound 4","[1]; mice dosed with RDVs containing the compound and Luc siRNA, Table 1",Greater efficacy
"CCCCC/C=C\C/C=C\CCCCCCCCOCC(CN(C)C)OCCCCCCCCO[C@H]1CC[C@@]2(C)C(=CC[C@H]3[C@@H]4CC[C@H]([C@H](C)CCCC(C)C)[C@@]4(C)CC[C@@H]32)C1 (some centres unmarked) [Compound 4, S-Octyl CLinDMA, reference compound]",inhibition at 0.3 mg/kg,[1],55%
"CCCCC/C=C\C/C=C\CCCCCCCCOC(CN(C)C)OCCCCCCCC (centres unmarked) [Compound 31, N,N-dimethyl-2-[(9Z,12Z)-octadeca-9,12-dien-1-yloxy]-2-(octyloxy)ethanamine]",Tolerability (serum ALT and AST) compared with RDV containing DLinKC2DMA cationic lipid 64,[2],better tolerability
"CCC/C=C\CCCCCCCOC(CN1CCCC1)OCCCCCCCC/C=C\C/C=C\CCCCC (centres unmarked) [Compound 34, 1-{2-[(8Z)-dodec-8-en-1-yloxy]-2-[(9Z,12Z)-octadeca-9,12-dien-1-yloxy]ethyl}pyrrolidine]",Serum levels of LDL-C,[3],less than 30 % of pre-dose levels
